Data on twelve compounds can be found in patent publication US12448383B2, “Compounds and methods for treatment of viral infections” (priority 2022, dated 2025).

One data set is described as follows: Plasma stability. Details: unit not given here. The note with it: 37° C., 2 μM substrate. Type of data set: in vitro ADME. The essentials: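 Reaction mixture was sampled at 0.05, 0.5, 1, 2, 3 and 4 hr into quench solution containing internal standard, then centrifuged and diluted with water. Remaining analyte was measured by LC-MS on a Q-Exactive using a formic acid/acetonitrile gradient, with 5 ppm mass tolerance.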

The test system of data set [1] is Caco-2 cells (clone C2BBe1). Kind of data set: CACO-2 permeability. Details: unit not given here. It counts as in vitro ADME. The following applies: for DM Caco2 A to B: apical to basolateral, donor pH 6.5, receiver pH 7.4; for DM Caco2 B to A: basolateral to apical. The essentials: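 Caco-2 monolayers grown 21 days on collagen-coated transwells and checked for integrity by TEER. Donor buffer was HBSS/HEPES/glucose pH 6.5 with 200 μM BNPP; receiver was pH 7.4 with BSA. Compounds were dosed apically or basolaterally for A-to-B and B-to-A transport, with receiver sampling at 1 and 2 h, LC-MS/MS analysis and percent recovery.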

The nature of data set [2]: Stability in pH2 buffered solution. It counts as physicochemical. The following applies: pH2 phosphate buffer, 40° C.; for pH 2 Stability 24 h % AN: Table N2. The essentials: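 Compounds diluted from 1 mg/mL acetonitrile stock to 50 μg/mL in 50 mM phosphate buffer with 150 mM NaCl at pH2 or pH7, held at 40° C. for 24 hrs. UPLC sampling at 0, 3, 6, 9, 12 hrs, plus 24 hrs from oven-stored duplicate; reported as % area normalized of compound peak.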

In data set [3] the test system is Respiratory syncytial virus recombinant with luciferase (RSV-Luc5) in HEp-2 cells. Kind of data set: microbe, parasite or virus in culture. Type of data set: cell-based. The note with it: human respiratory syncytial virus.
Another data set is described as follows: GI S9 stability. Type of data set: in vitro ADME. The following applies: human, s9, pH 7.4.
[4] abbreviates: HEp-2, 72 h, read-out: RSV Hep2 EC50.

Like-named read-outs stand apart in the source and are kept apart here.

In the case of `CCOC(=O)OC[C@H]1O[C@@](C#N)(c2ccc3c(N)ncnn23)[C@H](OC(C)=O)[C@@H]1OC(C)=O` [Compound 129, (2R,3R,4R,5R)-2-(4-aminopyrrolo[2,1-f][1,2,4]triazin-7-yl)-2-cyano-5-(((ethoxycarbonyl)oxy)methyl)tetrahydrofuran-3,4-diyl diacetate], the “STA Human Plasma 37” value in the data set “Plasma stability” was found to be 3. In addition, in data set [1], the “DM Caco2 A to B” value was determined as 3.505 and the “DM Caco2 B to A” value was 6.635. Further, in data set [2], the “Stability at pH2, 0 hr” value worked out at 100.0 % AN; the “Stability at pH2, 3 hr” value turned out to be 98.4 % AN; the “Stability at pH2, 6 hr” value worked out at 96.9 % AN; the “Stability at pH2, 9 hr” value is 95.5 % AN. Further, in data set [2], the “Stability at pH2, 12 hr” value is 94.0 % AN; the “pH 2 Stability 24 h % AN” value came to 89 % AN; the “Stability at pH2, 24 hr” value is 89.4 % AN.
Take `CC12CCC(C1)C(C)(C)C2OC(=O)OC[C@H]1O[C@@](C#N)(c2ccc3c(N)ncnn23)[C@H](O)[C@@H]1O` (mixture of isomers) [Compound 48, ((2R,3S,4R,5R)-5-(4-aminopyrrolo[2,1-f][1,2,4]triazin-7-yl)-5-cyano-3,4-dihydroxytetrahydrofuran-2-yl)methyl (1,3,3-trimethylbicyclo[2.2.1]heptan-2-yl) carbonate]: the EC50 in data set [3] (setting [4]) came out at 2350 nM. In the data set “Plasma stability”, the “STA Human Plasma 37” value came to 1584. Further, in data set [1], the “DM Caco2 A to B” value came to 6.19 and the “DM Caco2 B to A” value is 12.52. Also, in data set [2], the “pH 2 Stability 24 h % AN” value turned out to be 100 % AN.
For `CC(C)C(=O)O[C@H]1[C@@H](OC(=O)C(C)C)[C@](C#N)(c2ccc3c(N)ncnn23)O[C@@H]1COC(=O)OC(C)(C)C` [Compound 58, (2R,3R,4R,5R)-2-(4-aminopyrrolo[2,1-f][1,2,4]triazin-7-yl)-5-(((tert-butoxycarbonyl)oxy)methyl)-2-cyanotetrahydrofuran-3,4-diyl bis(2-methylpropanoate)] the same measures were 1360 nM, 1584, 5.67, 6.86 and 2 % AN.
For `CC(C)(C)OC(=O)OC[C@H]1O[C@@](C#N)(c2ccc3c(N)ncnn23)[C@H](O)[C@@H]1O` [Compound 46, ((2R,3S,4R,5R)-5-(4-aminopyrrolo[2,1-f][1,2,4]triazin-7-yl)-5-cyano-3,4-dihydroxytetrahydrofuran-2-yl)methyl tert-butyl carbonate], in data set [3] (setting [4]), the EC50 turned out to be 2320 nM. Moreover, the half-life at 2 µM in the data set “GI S9 stability” stood at 439 min. Besides, the “STA Human Plasma 37” value in the data set “Plasma stability” is reported as 553.13. In addition, in data set [1], the “DM Caco2 A to B” value was found to be 0.76 and the “DM Caco2 B to A” value was found to be 10.66. Also, the “pH 2 Stability 24 h % AN” value in data set [2] stood at 4 % AN.
In the case of `CC(C)OC(=O)OC[C@H]1O[C@@](C#N)(c2ccc3c(N)ncnn23)[C@H](O)[C@@H]1O` [Compound 4, [(2R,3S,4R,5R)-5-(4-aminopyrrolo[2,1-f][1,2,4]triazin-7-yl)-5-cyano-3,4-dihydroay-tetrahydrofuran-2-yl]methyl isopropyl carbonate], in data set [3] (setting [4]), the EC50 is 606 nM. The compound also showed a half-life at 2 µM in the data set “GI S9 stability” of 253 min. In “Plasma stability”, the “STA Human Plasma 37” value stood at 107.92. Further, in data set [1], the “DM Caco2 A to B” value was 0.545 and the “DM Caco2 B to A” value is recorded as 5.29. Besides, in data set [2], the “Stability at pH2, 0 hr” value amounted to 98.5 % AN; the “Stability at pH2, 3 hr” value stood at 98.3 % AN; the “Stability at pH2, 6 hr” value amounted to 98.5 % AN; the “Stability at pH2, 9 hr” value was 98.4 % AN. In addition, in data set [2], the “Stability at pH2, 12 hr” value was 98.5 % AN; the “pH 2 Stability 24 h % AN” value came out at 98 % AN; the “Stability at pH2, 24 hr” value is listed as 98.3 % AN.
As to `CCOC(=O)OC[C@H]1O[C@@](C#N)(c2ccc3c(N)ncnn23)[C@H](O)[C@@H]1O` [Compound 6, ((2R,3S,4R,5R)-5-(4-aminopyrrolo[2,1-f][1,2,4]triazin-7-yl)-5-cyano-3,4-dihydroxytetrahydrofuran-2-yl)methyl ethyl carbonate], in data set [3] (setting [4]), the EC50 was 1120 nM. The half-life at 2 µM in “GI S9 stability” came to 713 min. Also, the “STA Human Plasma 37” value in “Plasma stability” turned out to be 55.852. For the same compound, in data set [1], the “DM Caco2 A to B” value was 0.21 and the “DM Caco2 B to A” value worked out at 2.77. Moreover, the “pH 2 Stability 24 h % AN” value in data set [2] amounted to 100 % AN.
For the compound `CC(=O)O[C@H]1[C@@H](OC(C)=O)[C@](C#N)(c2ccc3c(N)ncnn23)O[C@@H]1COC(=O)OC(C)C` [Compound 65, (2R,3R,4R,5R)-2-(4-aminopyrrolo[2,1-f][1,2,4]triazin-7-yl)-2-cyano-5-(((isopropoxycarbonyl)oxy)methyl)tetrahydrofuran-3,4-diyl diacetate], the EC50 in data set [3] (setting [4]) amounted to 1080 nM. Moreover, in “Plasma stability”, the “STA Human Plasma 37” value came out at 14.9. Besides, in data set [1], the “DM Caco2 A to B” value worked out at 3.07 and the “DM Caco2 B to A” value came out at 7.23. Moreover, the “pH 2 Stability 24 h % AN” value in data set [2] is given as 90 % AN.
The corresponding values for `CC1(C)[C@@H]2CC[C@@]1(C)[C@@H](OC(=O)OC[C@H]1O[C@@](C#N)(c3ccc4c(N)ncnn34)[C@H](O)[C@@H]1O)C2` [Compound 51, ((2R,3S,4R,5R)-5-(4-aminopyrrolo[2,1-f][1,2,4]triazin-7-yl)-5-cyano-3,4-dihydroxytetrahydrofuran-2-yl)methyl ((1R,2S,4R)-1,7,7-trimethylbicyclo[2.2.1]heptan-2-yl) carbonate] are 2140 nM, 1366.8, 4.35, 17.19 and 98 % AN.
On to `CC(C)(OC(=O)OC[C@H]1O[C@@](C#N)(c2ccc3c(N)ncnn23)[C@H](O)[C@@H]1O)c1ccncc1` [Compound 49, ((2R,3S,4R,5R)-5-(4-aminopyrrolo[2,1-f][1,2,4]triazin-7-yl)-5-cyano-3,4-dihydroxytetrahydrofuran-2-yl)methyl (2-(pyridin-4-yl)propan-2-yl) carbonate], for which the EC50 in data set [3] (setting [4]) was more than 50000 nM. For the same compound, the “STA Human Plasma 37” value in the data set “Plasma stability” was determined as 1584. Moreover, in data set [1], the “DM Caco2 A to B” value worked out at 0.13 and the “DM Caco2 B to A” value is given as 3.48. In data set [2], the “pH 2 Stability 24 h % AN” value worked out at 97 % AN.
Consider `CC(C)OC(=O)Nc1ncnn2c([C@]3(C#N)O[C@H](COC(=O)OC(C)C)[C@@H](O)[C@H]3O)ccc12` [Compound 137, isopropyl (7-((2R,3R,4S,5R)-2-cyano-3,4-dihydroxy-5-(((isopropoxycarbonyl)oxy)methyl)tetrahydrofuran-2-yl)pyrrolo[2, i-f][1,2,4]triazin-4-yl)carbamate], for which the EC50 in data set [3] (HEp-2, read-out: EC50 RSVFluc-Hep2 384 V2) is more than 50000 nM. Besides, the “STA Human Plasma 37” value in “Plasma stability” was 676.3. For the same compound, in data set [1], the “DM Caco2 A to B” value stood at 0.98 and the “DM Caco2 B to A” value is 11.37. In data set [2], the “pH 2 Stability 24 h % AN” value was found to be 80 % AN. In “physchem”, this compound returned a logD of 2.
Consider `COC(=O)OC[C@H]1O[C@@](C#N)(c2ccc3c(N)ncnn23)[C@H](OC(C)=O)[C@@H]1OC(C)=O` [Compound 128, (2R,3R,4R,5R)-2-(4-aminopyrrolo[2,1-f][1,2,4]triazin-7-yl)-2-cyano-5-(((methoxycarbonyl)oxy)methyl)tetrahydrofuran-3,4-diyl diacetate], for which the “STA Human Plasma 37” value in “Plasma stability” was found to be 9.735. In data set [1], the “DM Caco2 A to B” value came to 3.35 and the “DM Caco2 B to A” value is recorded as 5.69. Moreover, in data set [2], the “Stability at pH2, 0 hr” value was 100.0 % AN; the “Stability at pH2, 3 hr” value was 98.3 % AN; the “Stability at pH2, 6 hr” value was 96.7 % AN; the “Stability at pH2, 9 hr” value was 95.2 % AN. For the same compound, in data set [2], the “Stability at pH2, 12 hr” value worked out at 93.8 % AN; the “pH 2 Stability 24 h % AN” value is given as 89 % AN; the “Stability at pH2, 24 hr” value worked out at 89.3 % AN.
`CC1(OC(=O)OC[C@H]2O[C@@](C#N)(c3ccc4c(N)ncnn34)[C@H](O)[C@@H]2O)CCCCC1` [Compound 47, ((2R,3S,4R,5R)-5-(4-aminopyrrolo[2,1-f][1,2,4]triazin-7-yl)-5-cyano-3,4-dihydroxytetrahydrofuran-2-yl)methyl (1-methylcyclohexyl) carbonate]: the concentration for a half-maximal effect (EC50) in data set [3] (setting [4]) is 2330 nM. In addition, the “STA Human Plasma 37” value in the data set “Plasma stability” is 1584. For the same compound, in data set [1], the “DM Caco2 A to B” value worked out at 1.68 and the “DM Caco2 B to A” value amounted to 11.38. Moreover, the “pH 2 Stability 24 h % AN” value in data set [2] is 1 % AN.
